The test relates to mouse long-term hematopoietic stem cells. Kind of test: Reproducibility and concentration dependence test: 1-week culture of sorted Hoxb5-tri-mCherry mouse long-term hematopoietic stem cells, flow cytometry. Particulars: day 7 of culture, n=2. The class given is cell-based. On the procedure: Mice with insertion of a nucleic acid sequence containing three copies of a gene encoding the fluorescent protein mCherry to the C terminus of the mouse endogenous HoxB5 gene (Hoxb5-tri-mCherry) were used (triple-mCherry Hoxb5 knock-in mice; Non Patent Literature 1). The mice were housed under environmental conditions such that the room temperature and the humidity were 20 to 26° C. and 40 to 70%, respectively, under light for 12 hours and under dark for 12 hours (illumination: 8:00 a.m. to 8:00 p.m.).
Bone marrow cells were collected from the tibia, femur, humerus, and pelvis in each side of each of the mice, and gathered in a mortar. A buffer obtained by adding thermally deactivated bovine serum (manufactured by Gibco) at a final concentration of 2% and EDTA at a final concentration of 2 mM to Ca^2+-free and Mg^2+-free PBS was added, and the resultant was broken with a pestle to obtain a cell population including hematopoietic stem cells.
First, the thus-obtained cell population including hematopoietic stem cells was passed through strainers (meshes) of 100 μm, 70 μm, and 40 μm. The cell population was stained with an APC-binding anti-c-Kit (2B8) and fractionated with anti-APC magnetic beads and an LS column (both manufactured by Miltenyi Biotec) to obtain a cell population enriched with hematopoietic stem cells and progenitor cells.
Subsequently, cells being c-Kit-positive were stained with antibodies for the following cell surface markers.
Staining with the antibodies was performed at 4° C., and the cells were incubated for 30 minutes. For staining with the CD34 antibody, the cells were incubated for 90 minutes. Dead cell staining was performed with SYTOX Red Dead Cell Stain (manufactured by Life Technologies) in accordance with a method recommended by the manufacturer.
Flow cytometry analysis and cell classification (cell sorting) were performed with a FACS Aria II cell sorter (manufactured by BD Biosciences), wherein Lineage-negative, c-Kit-positive, Sca-1-positive, Flk2-negative, CD34-negative or weakly CD34-positive, CD150-positive, and mCherry-positive fractions were regarded as long-term hematopoietic stem cells, and analysis was performed with the software FlowJo (manufactured by Tree Star, Inc.).
The cells after classification were seeded in a 96-well plate. A cell culture medium was prepared by adding Stem Cell Factor (SCF, manufactured by PeproTech, Inc.) and Thrombopoietin (TPO, manufactured by PeproTech, Inc.) to StemSpan SFEM culture medium (manufactured by […] Technologies Inc.) and added in advance to a cell culture 96-well plate (manufactured by BD Biosciences) at 100 μL/well, and the cells sorted with the FACS Aria II cell sorter (BD Biosciences) were then seeded at 10 cells/well.
[…] Thereafter, the cells were cultured in a CO2 incubator under conditions of 37° C. and 5% CO2 for 1 week.
After culture, the cells were stained with the antibodies for the surface markers c-Kit and Sca-1, Ter-119, B220, CD3, CD4, CD8a, Gr-1, and CD11b, and the ratio and post-growth cell count of a KLS fraction (c-Kit^+, Lin^−, Sca-1^+) or an mCherry-positive fraction given with use of a FACS Aria II cell sorter were analyzed by using FlowJo (BD Biosciences). The mCherry-positive fraction is a cell fraction expressing the Hoxb5 gene, and the KLS fraction is a cell fraction being c-Kit-positive, Lin-negative, and Sca-1-positive, and includes hematopoietic stem cells and multipotent progenitor cells as main components. […]
(In flow cytometry, cells or beads pass a laser one at a time.)

SMILES strings stand for the structures.

From patent US20230094952A1, “Method for Culturing Hematopoietic Stem Cells” (Sumitomo Pharma Co., Ltd., priority 2019, published 2023) come the findings set out here.

In the case of `C[C@@H]1CC[C@H]2[C@@H](C)C(=O)O[C@@H]3O[C@@]4(C)CC[C@@H]1[C@]32OO4` [Example 1-33, artemisinin, reference compound], the KLS-positive rate turned out to be 33.2% (Table 3, compound 0.1 μM); 18.2% (Table 3, compound 0.3 μM); 46.85% (Table 3, compound 1 μM); 50.8% (Table 3, compound 3 μM); 52% (Table 3, compound 10 μM); 20.2% (Table 4, compound 0.1 μM). For the same compound, the KLS-positive rate runs as follows: (Table 4, compound 0.3 μM) 11.2%; (Table 4, compound 1 μM) 20.3%; (Table 4, compound 3 μM) 26.1%; (Table 4, compound 10 μM) 16.1%. Also, the Viable cell count (Table 3, compound 0.1 μM) stood at 445.5 cell; the Viable cell count (Table 3, compound 0.3 μM) is on record as 1020 cell; the Viable cell count (Table 3, compound 1 μM) turned out to be 728 cell; the Viable cell count (Table 3, compound 3 μM) was 229 cell; the Viable cell count (Table 3, compound 10 μM) was found to be 282.5 cell; the Viable cell count (Table 4, compound 0.1 μM) is given as 268.5 cell. For the same compound, the Viable cell count was 309.5 cell (Table 4, compound 0.3 μM); 268.0 cell (Table 4, compound 1 μM); 85.0 cell (Table 4, compound 3 μM); 178.0 cell (Table 4, compound 10 μM). For the same compound, the mCherry-positive rate runs as follows: (Table 3, compound 0.1 μM) 49.25%; (Table 3, compound 0.3 μM) 28.15%; (Table 3, compound 1 μM) 60.85%; (Table 3, compound 3 μM) 81.3%; (Table 3, compound 10 μM) 80%; (Table 4, compound 0.1 μM) 28.1%. Moreover, the mCherry-positive rate reads like this: (Table 4, compound 0.3 μM) 23.5%; (Table 4, compound 1 μM) 56.8%; (Table 4, compound 3 μM) 81.8%; (Table 4, compound 10 μM) 78.8%.
With `C[C@H]1[C@H](n2cc(-c3ccccc3)nn2)O[C@@H]2O[C@@]3(C)CC[C@H]4[C@H](C)CC[C@@H]1[C@@]24OO3` [Example 1-9, 4-Phenyl-1-[(3R,5aS,6R,8aS,9R,10R,12R,12aR)-3,6,9-trimethyldecahydro-12H-3,12-epoxypyrano[4,3-j][1,2]benzodioxepin-10-yl]-1H-1,2,3-triazole], the KLS-positive rate is 10.6% (Table 4, compound 0.1 μM); 31.1% (Table 4, compound 0.3 μM); 34.3% (Table 4, compound 1 μM); 14.1% (Table 4, compound 3 μM); 27.1% (Table 4, compound 10 μM). For the same compound, the Viable cell count is, setting by setting: (Table 4, compound 0.1 μM) 627.5 cell; (Table 4, compound 0.3 μM) 500.0 cell; (Table 4, compound 1 μM) 625.0 cell; (Table 4, compound 3 μM) 479.0 cell; (Table 4, compound 10 μM) 491.5 cell. The compound also had a mCherry-positive rate (Table 4, compound 0.1 μM) of 5.9%; a mCherry-positive rate (Table 4, compound 0.3 μM) of 4.5%; a mCherry-positive rate (Table 4, compound 1 μM) of 9.4%; a mCherry-positive rate (Table 4, compound 3 μM) of 8.1%; a mCherry-positive rate (Table 4, compound 10 μM) of 11.4%.
As to `C[C@H]1[C@H](N(C)C)O[C@@H]2O[C@@]3(C)CC[C@H]4[C@H](C)CC[C@@H]1[C@@]24OO3` [Example 1-12, (3R,5aS,6R,8aS,9R,10R,12R,12aR)—N,N,3,6,9-Pentamethyldecahydro-12H-3,12-epoxypyrano[4,3-j][1,2]benzodioxepin-10-amine], the KLS-positive rate by setting is: (Table 4, compound 0.1 μM) 27.2%; (Table 4, compound 0.3 μM) 15.8%; (Table 4, compound 1 μM) 19.3%; (Table 4, compound 3 μM) 14.4%; (Table 4, compound 10 μM) 36.6%. Also, the Viable cell count (Table 4, compound 0.1 μM) is reported as 450.5 cell; the Viable cell count (Table 4, compound 0.3 μM) worked out at 262.0 cell; the Viable cell count (Table 4, compound 1 μM) turned out to be 431.5 cell; the Viable cell count (Table 4, compound 3 μM) was 217.0 cell; the Viable cell count (Table 4, compound 10 μM) came to 234.5 cell. Besides, the mCherry-positive rate (Table 4, compound 0.1 μM) is 7.3%; the mCherry-positive rate (Table 4, compound 0.3 μM) is recorded as 15.2%; the mCherry-positive rate (Table 4, compound 1 μM) was determined as 8.2%; the mCherry-positive rate (Table 4, compound 3 μM) was found to be 19.4%; the mCherry-positive rate (Table 4, compound 10 μM) is 12.1%.
Consider `CC(=O)O[C@@H]1O[C@@H]2O[C@@]3(C)CC[C@H]4[C@H](C)CC[C@@H]([C@H]1C)[C@@]24OO3` [Example 1-14, (3R,5aS,6R,8aS,9R,10S,12R,12aR)-3,6,9-Trimethyldecahydro-12H-3,12-epoxypyrano[4,3-j][1,2]benzodioxepin-10-yl acetate], for which the KLS-positive rate is reported as 20.6% (Table 4, compound 0.1 μM); 30.1% (Table 4, compound 0.3 μM); 47.3% (Table 4, compound 1 μM); 50.0% (Table 4, compound 3 μM); 0.0% (Table 4, compound 10 μM). Moreover, the Viable cell count is, setting by setting: (Table 4, compound 0.1 μM) 497.5 cell; (Table 4, compound 0.3 μM) 340.0 cell; (Table 4, compound 1 μM) 119.0 cell; (Table 4, compound 3 μM) 1.0 cell; (Table 4, compound 10 μM) 0.5 cell. Besides, the mCherry-positive rate is, setting by setting: (Table 4, compound 0.1 μM) 0.2%; (Table 4, compound 0.3 μM) 9.0%; (Table 4, compound 1 μM) 22.1%; (Table 4, compound 3 μM) 100.0%; (Table 4, compound 10 μM) 0.0%.
Turning to `CC(C)O[C@H]1O[C@@H]2O[C@@]3(C)CC[C@H]4[C@H](C)CC[C@@H]([C@H]1C)[C@@]24OO3` [Example 1-19, (3R,5aS,6R,8aS,9R,10S,12R,12aR)-3,6,9-Trimethyl-10-[(propan-2-yl)oxy]decahydro-12H-3,12-epoxypyrano[4,3-j][1,2]benzodioxepine], the KLS-positive rate is 9.5% (Table 4, compound 0.1 μM); 41.7% (Table 4, compound 0.3 μM); 4.2% (Table 4, compound 1 μM); 0.0% (Table 4, compound 3 μM); 0.0% (Table 4, compound 10 μM). The Viable cell count reads like this: (Table 4, compound 0.1 μM) 469.0 cell; (Table 4, compound 0.3 μM) 151.0 cell; (Table 4, compound 1 μM) 6.0 cell; (Table 4, compound 3 μM) 0.0 cell; (Table 4, compound 10 μM) 0.5 cell. Further, the mCherry-positive rate is, setting by setting: (Table 4, compound 0.1 μM) 56.3%; (Table 4, compound 0.3 μM) 96.2%; (Table 4, compound 1 μM) 50.0%; (Table 4, compound 3 μM) 0.0%; (Table 4, compound 10 μM) 50.0%.
For the compound `CCO[C@H]1O[C@@H]2O[C@@]3(C)CC[C@H]4[C@H](C)CC[C@@H]([C@H]1C)[C@@]24OO3` [Example 1-31, artemotil, reference compound], the KLS-positive rate (Table 3, compound 0.1 μM) came out at 28.85%; the KLS-positive rate (Table 3, compound 0.3 μM) is 21.95%; the KLS-positive rate (Table 3, compound 1 μM) is on record as 30.8%; the KLS-positive rate (Table 3, compound 3 μM) turned out to be 66.65%; the KLS-positive rate (Table 3, compound 10 μM) came to 0%; the KLS-positive rate (Table 4, compound 0.1 μM) is reported as 26.5%. Further, the KLS-positive rate came out at 19.7% (Table 4, compound 0.3 μM); 62.3% (Table 4, compound 1 μM); 87.5% (Table 4, compound 3 μM); 25.0% (Table 4, compound 10 μM). Moreover, the Viable cell count (Table 3, compound 0.1 μM) came out at 1073 cell; the Viable cell count (Table 3, compound 0.3 μM) is listed as 1529 cell; the Viable cell count (Table 3, compound 1 μM) came to 249 cell; the Viable cell count (Table 3, compound 3 μM) was 8 cell; the Viable cell count (Table 3, compound 10 μM) is recorded as 0 cell; the Viable cell count (Table 4, compound 0.1 μM) was determined as 201.5 cell. Also, the Viable cell count (Table 4, compound 0.3 μM) was 194.0 cell; the Viable cell count (Table 4, compound 1 μM) was determined as 19.5 cell; the Viable cell count (Table 4, compound 3 μM) is given as 2.5 cell; the Viable cell count (Table 4, compound 10 μM) was 1.5 cell. The mCherry-positive rate is on record as 57.4% (Table 3, compound 0.1 μM); 47.65% (Table 3, compound 0.3 μM); 92.85% (Table 3, compound 1 μM); 100% (Table 3, compound 3 μM); 0% (Table 3, compound 10 μM); 84.9% (Table 4, compound 0.1 μM). In addition, the mCherry-positive rate by setting is: (Table 4, compound 0.3 μM) 96.3%; (Table 4, compound 1 μM) 98.3%; (Table 4, compound 3 μM) 100.0%; (Table 4, compound 10 μM) 50.0%.
